Experimental data from PubChem BioAssay (NCI).
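All cell lines were grown in 96-well plates and treated with compound for 48 hours. The concentration for 50% growth inhibition is given as GI50. TGI: total growth inhibition.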

Columns and labels:
Test in all cases: inhibition of tumour cell growth, NCI panel, 48 h
SR leukemia = tested on: SR leukemia
SNB-19 CNS = tested on: SNB-19 CNS
SK-MEL-28 melanoma = tested on: SK-MEL-28 melanoma
HL-60(TB) leukemia = tested on: HL-60(TB) leukemia
HOP-62 NSCLC = tested on: HOP-62 NSCLC
NCI-H522 lung = tested on: NCI-H522 lung
IGROV1 ovarian = tested on: IGROV1 ovarian
SN12C renal = tested on: SN12C renal

| SMILES | GI50 (SR leukemia) [µM] | TGI (SR leukemia) [µM] | GI50 (SNB-19 CNS) [µM] | TGI (SNB-19 CNS) [µM] | GI50 (SK-MEL-28 melanoma) [µM] | TGI (SK-MEL-28 melanoma) [µM] | GI50 (HL-60(TB) leukemia) [µM] | TGI (HL-60(TB) leukemia) [µM] | GI50 (HOP-62 NSCLC) [µM] | TGI (HOP-62 NSCLC) [µM] | GI50 (NCI-H522 lung) [µM] | TGI (NCI-H522 lung) [µM] | GI50 (IGROV1 ovarian) [µM] | TGI (IGROV1 ovarian) [µM] | GI50 (SN12C renal) [µM] | TGI (SN12C renal) [µM] |
| --- | --- | --- | --- | --- | --- | --- | --- | --- | --- | --- | --- | --- | --- | --- | --- | --- |
| c1cncc(C2Nc3cccc4cccc(c34)N2)c1 | 27.5 | > 100 | > 100 | > 100 | 64 | > 100 | 36.6 | > 100 | 42.5 | > 100 | 14.6 | 35.1 | 11.8 | 25.6 | 53.4 | > 100 |
| Cc1[nH]nc2c1N=C(c1ccccc1F)c1cc(C(N)=O)ccc1N2 | 0.191 | 8.2 | 6.43 | > 25 | 5.79 | > 24.1 | 5.97 | 14.4 | 3.79 | 24.4 | 2.19 | > 19.6 | 8.29 | > 22.5 | 4.2 | > 25 |
| CCc1cc2ncc(CN3CCN(c4ccc(C(=O)NC)nc4)CC3)cc2[nH]c1=O | 11.5 | > 100 | 99.7 | > 100 | > 100 | > 100 | 32.1 | > 100 | 55.7 | > 100 | 27.1 | > 100 | 57.4 | > 100 | 98.3 | > 100 |
| CCCCN(CCCC)CCC(O)c1cc2c(Cl)cc(Cl)cc2c2cc(C(F)(F)F)ccc12 (stereo unspecified) | – | 28.9 | – | 40.6 | – | 33.1 | – | 21.8 | – | 21.9 | – | 32.9 | – | 26.5 | – | 20 |
| CN1CCN(Cc2ccc(NC(=O)c3cncc(C#Cc4cncc5nccnc45)c3)cc2C(F)(F)F)CC1 | 2.98 | 28.5 | 9 | 18.9 | 1.66 | 5.97 | 0.342 | 4.76 | 2.68 | 9.8 | 3.17 | 10.8 | 1.52 | 7.07 | 1.97 | 13.9 |
| COC(=O)/C=C1/SC(N2N=C(c3cccs3)CC2c2ccc(F)cc2)=NC1=O (stereo unspecified) | 2.23 | 11.8 | 2.51 | 6.32 | 2.61 | 6 | 2.88 | 6.35 | 1.87 | 4.29 | 2.15 | 4.79 | 2.4 | 7.06 | 3.29 | 11 |
| COc1cc(C2C3=C(COC3=O)Nc3c2ccc2c3CCCC2)cc2c1OCO2 (stereo unspecified) | 0.0354 | > 21 | 0.0531 | > 77.4 | 0.0547 | > 100 | 0.0316 | 0.09 | 0.0426 | 18.7 | 0.0239 | 1.46 | 0.0765 | > 100 | 0.0723 | > 100 |
| COc1ccc2c(Cl)cc(NC(=O)Nc3c(C)cccc3C)nc2c1 | 27.5 | > 100 | 72.7 | > 100 | 31 | > 100 | > 100 | > 100 | 3.91 | 15.3 | > 100 | > 100 | 21.9 | > 100 | 15.6 | > 100 |
| COc1cc(N2CCN(C(C)C)CC2)ccc1Nc1nc(Nc2cccc(F)c2C(=O)O)c2cc[nH]c2n1 | > 25 | > 25 | > 25 | > 25 | > 25 | > 25 | > 25 | > 25 | > 25 | > 25 | > 25 | > 25 | > 25 | > 25 | > 25 | > 25 |
| Cc1ccc(C2=Nc3c(N)ncnc3NC(c3ccc4c(c3)OCO4)C2)cc1 (stereo unspecified) | 0.249 | 3.85 | 38.2 | > 100 | 10.2 | 38 | 0.718 | > 100 | > 100 | > 100 | 3.67 | 23.2 | 3.34 | 26.2 | 8.61 | > 100 |
| CC(/C=C/c1ccccc1)=N\NC(N)=S | – | 65.3 | – | 79.2 | – | > 100 | – | 41.7 | – | > 100 | – | – | – | > 100 | – | > 100 |
| Cc1cc2nc3cc(C)c(N)cc3[n+](-c3ccccc3)c2cc1N | – | – | 2.06 | > 100 | 15.2 | 79.3 | 4.92 | > 100 | 3.7 | > 100 | 3.73 | > 41 | 12.4 | > 100 | 1.59 | > 23 |
| NCCOc1ccccc1/C=C1\c2ccccc2-c2ccc([N+](=O)[O-])cc21 | – | – | – | – | 1.75 | 3.18 | 1.54 | 3.07 | 1.53 | 3.18 | 1.49 | 3.05 | 1.35 | 2.68 | 1.41 | 2.82 |
| CCCNC(=O)c1ccc(Cl)cc1Cl | > 100 | > 100 | > 100 | > 100 | > 100 | > 100 | > 100 | > 100 | > 100 | > 100 | – | – | > 100 | > 100 | > 100 | > 100 |
| OCCNCCCOc1ccc2ncnc(Nc3ccc(Oc4cccc(C(F)(F)F)c4)c(Cl)c3)c2c1 | 1.62 | 4.65 | – | – | 1.75 | 3.21 | – | – | – | – | – | – | 0.584 | 2.14 | 1.43 | 2.83 |
| Cc1ccc(C2=C(c3ccc(C)cc3)C3(c4ccc(C)cc4)C4C(=O)c5ccccc5C(=O)C4C2(c2ccc(C)cc2)S3=O)cc1 (stereo unspecified) | – | – | 63.7 | > 100 | 60.6 | > 100 | – | – | 73.7 | > 100 | > 100 | > 100 | > 100 | > 100 | > 100 | > 100 |
| Cn1c2ccccc2c2c3[nH][nH]c(=O)c3c3c4ccccc4[nH]c3c21 | – | – | 3.05 | > 100 | 3.74 | 12.9 | 2.46 | 6 | 3.11 | 10.4 | 1.56 | 10.4 | – | – | 2.33 | > 100 |
